Measurements taken from US20250297300A1, “DETECTION, STAGING, MONITORING AND TREATING A DISEASE OR A CONDITION” (SUNBIRD BIO, INC., priority 2021, published 2025).
Primed or numbered codes have the meaning given here. Where no end group is shown, it is not given here. The star is where a group is joined. 5FAM = O=C1OC2(c3ccc(O)cc3Oc3cc(O)ccc32)c2ccc(C(=O)*)cc21; K(CPQ2) = lysine carrying the CPQ2 quencher; FAM = fluorescent reporter; PEG2′ = not defined here

How the values were obtained:
COVID-related proteases [1] = assay: Ex vivo FRET probe cleavage in COVID vs healthy K2EDTA and Lithium Heparin plasma; type: biochemical; details: K2EDTA and Lithium Heparin plasma sets
[2] = test system: caspase activity in hepatitis; assay: Ex vivo FRET probe cleavage in plasma of Jo2 fulminant hepatitis mice; type: biochemical; details: plasma 3 hours after Jo2 injection
Method: Fulminant hepatitis is induced after injection intraperitoneal of monoclonal antibody anti-CD95 (Jo2, BD biosciences, 4 ug/animal), and mouse plasma samples were collected 3 hours after Jo2 injection.

[3] = cited from earlier work
[4] = test system: cathepsin and/or MMP protease activities; assay: Ex vivo FRET probe cleavage in plasma: NASH progression, regression, healthy mice; type: biochemical; details: K2EDTA plasma at 20 weeks
Description: Plasma samples were collected from all animals at 20 weeks.
The probes showing the most differentiation in NASH were linked to cathepsin and/or MMP protease activities.

[5] = test system: carboxylesterase 1, phospholipase A2 and lipoprotein lipase; assay: Spiked recombinant enzymes in human plasma with resorufin oleate as substrate; type: biochemical
[6] = test system: proteases in plasma sensed by Probe #102 (cathepsin L); assay: Inhibitor profiling of Probe #102 cleavage in NASH and healthy plasma; type: biochemical, mice; details: for effect of inhibitor on signal for NASH or healthy samples: Probe #102
Method: For this experiment, all plasma samples were prepared individually and diluted 1/10e in PBS with inhibitor added directly to the samples. Inhibitor was prepared at 15× concentration to final. Substrates were diluted in DI water at 18 uM, such that the final concentration on the plate would be 6 uM. All samples were prepared such that their last dilution on the plate would not affect the desired final concentration. 10 ul of each individual sample was pipetted into their corresponding wells, and the plate was then spun down in the centrifuge at 1500 RPM for 30 seconds to coat the bottom of each well with the sample. 5 ul of the 18 uM substrate solution was pipetted into each well being used on a 384 well plate, and then the plate was spun down in the centrifuge at 1500 rpm for 30 seconds. The plate was placed immediately in the plate reader at 37° C. for a 30-minute-long fluorescence kinetic read at 485/535 extended gain.
To assess the proteolytic cleavage pattern of Probe #102, samples were tested using a pool of broad inhibitors for serine, cysteine, threonine, MMP and aspartic protease family members (broad inhibitor) to assess general protease activity, AEBSF for serine proteases, E64 for cysteine proteases, CTSi for broad cathepsin inhibition of cathepsins L,S,K and B, or specific inhibitors for cathepsin K (L00625), for cathepsin L (SID) or cathepsin B (CA074).

NASH-related proteases = assay: Ex vivo FRET probe cleavage in K2EDTA plasma of NASH (CDAHFD) vs healthy (CD) mice; type: biochemical; details: n=10 and pooled
Method: All animals were used in accordance with animal care guidelines. Plasma was obtained from these blood samples by centrifugation at 3,500 RPM for 20 min at 4° C. The plasma was stored at −80° C. until it was needed for experimental purposes.
Samples were mixed with protease substrates and quenchers/reporters in 96-well plates. The 96-well plates were read on a Biotech Synergy H1, using 465,535 excitation/emission settings.
A single plasma sample was contacted with the probes for each predetermined protease to provide a multiplex assessment of protease activity in the sample.

COVID-related proteases [7] = assay: Ex vivo FRET probe cleavage in COVID positive vs negative swab samples; type: biochemical
Granzyme B = biological target: T1, Granzyme B (Homo sapiens, UniProt P10144); assay: Inhibition experiments on Probe #647 signal in COVID swab samples; type: biochemical; details: healthy vs COVID samples, FIG. 39
T1 construct: from tissue; host or cells: COVID swab samples
T1 sequence (P10144 21-247): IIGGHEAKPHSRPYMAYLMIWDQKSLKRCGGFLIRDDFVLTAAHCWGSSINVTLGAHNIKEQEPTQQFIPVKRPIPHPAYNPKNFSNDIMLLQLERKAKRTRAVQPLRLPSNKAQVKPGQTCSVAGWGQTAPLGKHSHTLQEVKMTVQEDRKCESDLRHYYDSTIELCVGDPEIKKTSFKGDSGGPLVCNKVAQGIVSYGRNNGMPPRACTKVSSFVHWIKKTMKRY

Compound: Probe #18: a Neutrophil elastase substrate (GAAPVGK; also: 5-FAM, CPQ2 quencher, PEG2-kk-GC, places not given here)
- differential cleavage between COVID and healthy samples (COVID-related proteases [1]): demonstrated contrast in both sets

Compound: Probe #8: Caspase centric probe (GVDVADGK; not fully specified; 5-FAM, CPQ2 quencher, PEG2, D-Lys-D-Lys-GC)
- differentiation between healthy and Jo2 samples [2]: show contrast that is specific and sensitive to the Jo2 model

Compound: O=c1[nH]c(-c2ccccc2O)nc2ccccc12 [HPQ, 2-(2″-hydroxyphenyl)-4(3H)-quinazolinone]
- solubility in water [3]: strictly insoluble in water

Compound: Probe #520: FRET peptide probe of Table 1 (5FAM-GKPISLISSG-{K(CPQ2)-PEG2′-Gly-Cys})
- differentiation among healthy, regression and NASH samples [4]: can differentiate

Compound: Probe #428: FRET peptide probe of Table 1 ({FAM}-GDRRKKLTQG-{K(CPQ2)-PEG2′-dK-dK-Gly-Cys})
- differentiation among healthy, regression and NASH samples [4]: can differentiate

Compound: resorufin oleate
- suitability as substrate for enzyme detection [5]: promising for detection of broad range of enzymes

Compound: CCCC(=O)O [butyrate]
- suitability as substrate for enzyme detection [5]: promising for detection of broad range of enzymes

Compound: NCCc1ccc(S(=O)(=O)F)cc1 [AEBSF]
- decrease of RFU signal by inhibitor, NASH ([6]; NASH plasma diluted 1/10 in PBS, Probe #102 6 uM): 65%
- decrease of RFU signal by inhibitor, healthy ([6]; healthy plasma diluted 1/10 in PBS, Probe #102 6 uM): 60%

Compound: Probe #84: a Furin substrate (GRVKRGLAGK; also: 5-FAM, CPQ2 quencher, PEG2-kk-GC, places not given here)
- differential cleavage between COVID and healthy samples (COVID-related proteases [1]): demonstrated contrast in both sets

Compound: Probe #12: Caspase centric probe (GDEVDGK; not fully specified; 5-FAM, CPQ2 quencher, PEG2, D-Lys-D-Lys-GC)
- differentiation between healthy and Jo2 samples [2]: show contrast that is specific and sensitive to the Jo2 model

Compound: CCCNC(=O)[C@H]1O[C@@H]1C(=O)N[C@H](C(=O)N1CCC[C@H]1C(=O)O)[C@@H](C)CC [CA074]
- effect of inhibitor on signal for NASH or healthy samples [6]: did not significantly decrease signal

Compound: Probe #492: FRET peptide probe of Table 1 ({FAM}-GQRANSIRVTWG-{K(CPQ2)-PEG2′-dK-dK-Gly-Cys})
- differentiation among healthy, regression and NASH samples [4]: can differentiate
- attribution of measured rate of fluorescence increase (NASH-related proteases): can be ascribed to protease activity and to NASH disease

Compound: Probe #96: FRET peptide probe of Table 1 ({FAM}-GRPLALWESQG-{K(CPQ2)-PEG2′-dK-Gly-Cys})
- differentiation among healthy, regression and NASH samples [4]: can differentiate

Compound: CN1CCN(c2nc(-c3ccc(C(=O)NC4(C(=O)NCC#N)CCCCC4)cc3)cs2)CC1 [Probe L006235]
- effect of inhibitor on signal for NASH or healthy samples [6]: did not significantly decrease signal

Compound: Probe #462: a MMP8 substrate (GKKAKRNALG; also: FAM, K(CPQ2), PEG2, D-Lys-D-Lys-GC, places not given here)
- differential cleavage between COVID and healthy samples (COVID-related proteases [1]): demonstrated contrast in both sets

Compound: Probe #647: Caspase centric probe; signal measures the activity of protease Granzyme B (GAIEPDSGG; also: 5FAM, Lys(CPQ2), PEG2, D-Lys-D-Lys, GC-NH2, places not given here)
- number of active samples, COVID+ (COVID-related proteases [7]; adjusted RFU across timepoints): 7 samples
- number of active samples, COVID- (COVID-related proteases [7]; adjusted RFU across timepoints): 1 samples
- differentiation between COVID+ and COVID- samples (COVID-related proteases [7]; swabs in saline): key differentiator
- differentiation between healthy and Jo2 samples [2]: show contrast that is specific and sensitive to the Jo2 model
- differentiation among healthy, regression and NASH samples [4]: can differentiate
- protease whose activity the probe signal measures (Granzyme B): measures the activity of protease Granzyme B

Compound: Probe #102: a CTSL sensing probe; FRET peptide probe with fluorescent reporter and quencher ({FAM}-GKPILFFRLKG-{K(CPQ2)-PEG2′-dK-dK-Gly-Cys})
- protease to whose activity the probe responds ([6]; from inhibitor experiments, FIG. 30): specifically responds to the activity of cathepsin L (CTSL)
- differentiation among healthy, regression and NASH samples [4]: can differentiate
- attribution of measured rate of fluorescence increase (NASH-related proteases): can be ascribed to protease activity and to NASH disease

Compound: CC(C)C[C@H](NC(=O)[C@H]1O[C@@H]1C(=O)O)C(=O)NCCCCN=C(N)N [Probe E64, E64]
- effect of inhibitor on signal for NASH or healthy samples [6]: decreased NASH signal significantly
